Data on 99 compounds can be found in the CATMoS acute toxicity set (Mansouri et al. 2021).

This series can be described thus: GHS categories as the set defines them, by LD50: 1 up to 5, 2 up to 50, 3 up to 300, 4 up to 2000, 5 above 2000 mg/kg. The following applies: rat; in vivo; po.

As for `CCN(CC)CCc1nc(-c2ccccc2)no1`, the GHS category amounted to 5.
The figure for `OC1(c2ccc(-c3ccccc3)cc2)c2ccccc2C2=NCCN21` (centres undefined) is 4; for `O=C1c2ccccc2OC1c1ccccc1` (centres undefined) it is 5; for `CC(C)CCCCCCCCCCCCCCC(=O)O` it is 5.
The figure for `COc1cc(OC)nc(NC(=O)NS(=O)(=O)c2ncccc2C(F)(F)F)n1` is 5; for `COc1ccccc1N1CCN(/C(N)=N/c2ccc(Cl)c(Cl)c2)CC1` it is 4.
The figure for `CCCS(=O)(=O)Nc1ccc(F)c(C(=O)c2cn(C(=O)c3c(Cl)cccc3Cl)c3ncc(Br)cc23)c1F` is 5; for `COc1cc(NS(=O)(=O)c2ccccc2)c2c(c1N)C(=O)c1ccccc1C2=O` it is 5.
In turn, `CCOC(=O)NC1CCCN(c2nc(N)c3cc(OC)c(OC)cc3n2)C1` (centres undefined) returned a GHS category of 4.
With `O=C(O)c1ccc(C(=O)O)o1` the figure was 5; with `CCCCCCCCCC(=O)N(C)C`, 5; with `CC(=O)C1(Cl)CC1`, 4.
The figure for `O=C(Nc1ccc(F)cc1F)c1cccnc1Oc1cccc(C(F)(F)F)c1` is 5.
With `CCCNC(=O)c1sc(-c2ccc(OC)c(OC)c2)nc1C` the figure was 5.
Compound `Cc1ccc(S(=O)(=O)NC(=O)NC(=O)C(Cl)(Cl)Cl)cc1` displayed a GHS category of 5.
With `CNC(=O)Oc1ccc(C)c2sccc12` the figure was 3.
With `CCCOC(C)OCCc1ccccc1` (centres undefined) the figure was 5; with `CC(C)NP1(=S)OCc2cc([N+](=O)[O-])ccc2O1` (centres undefined), 3; with `O=c1[nH]cnc2c1ncn2[C@H]1CC[C@@H](CO)O1`, 5.
In turn, `O=S(=O)(O)c1cc(Nc2nc(Nc3ccccc3)nc(Nc3ccccc3)n2)ccc1C=Cc1ccc(Nc2nc(Nc3ccccc3)nc(Nc3ccccc3)n2)cc1S(=O)(=O)O` gave a GHS category of 5.
With `CCOC(=O)C(=O)Nc1cc(OCCOC)nc(C)n1` the figure was 4; with `CNC(=O)C(=NNc1ccc(Cl)cc1[N+](=O)[O-])C(C)=O`, 5; with `CCCCCCCCCCCCCCCCCC(=O)OC(CO)COC(=O)CCCCCCCCCCCCCCC` (centres undefined), 5.
With `CCOC(=O)COc1nn(-c2cccc(C(F)(F)F)c2)c2ncccc12` the figure was 4; with `CC/C=C\CCOC(=O)Cc1ccccc1`, 5.
With `CC(=O)c1ccc(Oc2ccc(Cl)cc2)cc1Cl` the figure was 5; with `CCCCCCC#CC(OC)OC`, 5; with `C[C@@H]1C[C@@H](C)CC(C)(C)C1`, 5.
The compound `C=CC(C)(O)CCCC(C)CCCC(C)CCCC(C)C` (centres undefined) gave a GHS category of 5.
`Nc1ccn([C@@H]2O[C@H](CO)[C@@H](O)[C@@H]2O)c(=O)n1` displayed a GHS category of 5.
With `CCCCCCCOCC(C)CC=O` (centres undefined) the figure was 5; with `CC1Oc2cc(C(=O)c3ccccc3)ccc2N(C)C1=O` (centres undefined), 5.
The figure for `CCCCCCCCCCCCCCCCCC(=O)NCCCCC(NC(=O)CCC(NC(=O)C(C)NC(=O)C(C)OC1C(O)C(CO)OC(O)C1NC(C)=O)C(N)=O)C(=O)O` (centres undefined) is 4.
The figure for `CCOc1ccccc1NC(=O)C(=O)Nc1ccccc1CC` is 5; for `CCCc1c(Cc2ccc(-c3ccccc3-c3nn[nH]n3)cc2)c(=O)nc2nc(N(CC)CC)[nH]n12` it is 4.
As for `CCCCCOC(=O)CCCCC`, the GHS category is recorded as 5.
The figure for `O=CCC(=O)c1ccc(C2CCCCC2)cc1` is 4; for `CCN(CC)c1ccc(N=Nc2ncc([N+](=O)[O-])s2)cc1` it is 5; for `CCCCCCCCCCCC(=O)OCC(C)O` (centres undefined) it is 5.
`CCOC(C)OCCc1ccccc1` (centres undefined) had a GHS category of 5.
With `CC1(C)COB(OCC(C)(C)COB2OCC(C)(C)CO2)OC1` the figure was 5; with `CCCCCCCOCC(COCCCCCCC)(COCCCCCCC)COCCCCCCC`, 5; with `CC(C)(CO)C1OCC2(CO1)COC(C(C)(C)CO)OC2` (centres undefined), 5.
The figure for `O=C(Cn1cnnn1)N[C@@H]1C(=O)N2C(C(=O)O)=C(CSc3nncs3)CS[C@H]12` is 5.
With `Cc1cc(C2CC2)nc(Nc2ccccc2)n1` the figure was 5.
In turn, `C/C1=C\[C@@H](C)C/C=C/[C@H]2[C@@H]3O[C@]3(C)[C@@H](C)[C@H]3[C@H](Cc4c[nH]c5ccccc45)NC(=O)[C@]32C(=O)/C=C/C(=O)[C@@H]1O` had a GHS category of 4.
With `Nc1ncnc2c1ncn2[C@@H]1O[C@H](CO)[C@@H](O)[C@@H]1O` the figure was 5; with `CCCCOC(=O)CC(O)C(=O)OCCCC` (centres undefined), 5.
Compound `C=CCSc1nc2ccc(Cc3ccccc3)cc2[nH]1` yielded a GHS category of 5.
The compound `Nc1ccc2oc(N)nc2c1` showed a GHS category of 4.
With `CC(=O)C(N=Nc1cccc(OCCOc2ccccc2N=NC(C(C)=O)C(=O)Nc2ccc3[nH]c(=O)[nH]c3c2)c1)C(=O)Nc1ccc2[nH]c(=O)[nH]c2c1` (centres undefined) the figure was 5.
The figure for `CC(=O)C(C)O` (centres undefined) is 5; for `CCCc1c(Cc2ccc(-c3ccccc3-c3nn[nH]n3)cc2)c(N=[N+]=[N-])nc2ncnn12` it is 4.
`NC(=O)Oc1ccccc1C(=O)Oc1ccc(Cl)cc1Cl` returned a GHS category of 5.
The compound `CCCCC(=O)O[C@]1(C(=O)CO)[C@H](C)C[C@H]2[C@@H]3CCC4=CC(=O)C=C[C@]4(C)[C@@]3(F)[C@@H](O)C[C@@]21C` registered a GHS category of 5.
In the case of `COP(=O)(NC(=O)C(C)C)SC` (centres undefined), the GHS category is 4.
The figure for `COc1ccc(C2NC(=O)CCS2)cc1` (centres undefined) is 5; for `CN1C[C@H](c2ccnn2C)CC2c3cccc4[nH]cc(c34)C[C@H]21` (some centres undefined) it is 4; for `N#Cc1cccc(C2=C3C(=O)NC(c4cccc(C#N)c4)=C3C(=O)N2)c1` it is 5.
The figure for `O=c1cc(-c2ccccc2)c2ccc(OCCCN3CCC(c4ccccc4)CC3)cc2[nH]1` is 4; for `Nc1c(I)c(C(=O)O)c(I)c(C(=O)NCC(O)CO)c1I` (centres undefined) it is 5; for `CC(=O)OC1CCC(NCc2ccccc2N)CC1` (centres undefined) it is 5.
With `c1ccc([I+]c2ccccc2)cc1` the figure was 4.
As for `NC(=O)Oc1ccccc1C(=O)Oc1ccc(Cl)cc1`, the GHS category turned out to be 5.
`CC(C)=CCC(O)C1=CC(=O)c2c(O)ccc(O)c2C1=O` (centres undefined) returned a GHS category of 4.
The figure for `CN1CCN(CC(=O)N(C)c2ccc(N)cc2)CC1` is 5; for `C=CC1=C(C(=O)O)N2C(=O)[C@@H](NC(=O)C(=NOCC(=O)O)c3csc(N)n3)[C@H]2SC1` it is 5; for `CCC1COC(Cn2ccnc2)(c2cc3cc(Cl)cc(Cl)c3o2)O1` (centres undefined) it is 4.
Compound `CCC1(CC)COC(Cn2cncn2)(c2cc3ccccc3o2)OC1` showed a GHS category of 4.
With `CCCCC(CC)COC(=O)CCCCCCCCC(=O)OCC(CC)CCCC` (centres undefined) the figure was 5.
With `CCCCCCCCCCBr` the figure was 5; with `CCCC=CCC1CCCC1=O` (centres undefined), 5; with `CCCCCCCCCCCCCCCCCOS(=O)(=O)O`, 4.
The figure for `CS(=O)(=O)c1cc(C(F)(F)F)ccc1C(=O)c1cnoc1C1CC1` is 5; for `C[C@@H]1CN([C@H]2CC[C@](C#N)(c3ccc(F)cc3)CC2)CC[C@]1(C(=O)O)c1ccccc1` it is 5; for `Cc1cc(C)c(C2=C(OC(=O)CC(C)(C)C)C3(CCCC3)OC2=O)c(C)c1` it is 5.
On to `N#CCN(CC#N)CC#N`, for which the GHS category is recorded as 3.
With `CCOC(=O)c1cc(=O)c2c(OCC(O)COc3cccc4oc(C(=O)OCC)cc(=O)c34)cccc2o1` the figure was 5; with `Fc1ccc(N/C(=N/C2CCCCC2)c2ccccc2)cc1`, 5; with `CCCCOC(=O)C(=O)Nc1cccc(-c2nnn[nH]2)c1`, 5.
As for `CC(C)NC(=O)N1CCc2nc(N=C(N)N)sc2C1`, the GHS category is 4.
With `O=C1CC(Nc2ccc(Cl)cc2Cl)=NN1c1c(Cl)cc(Cl)cc1Cl` the figure was 5; with `CSC(C)=NOC(=O)N(C)SN(C(C)(C)C)P1(=S)OCC(C)(C)CO1`, 5; with `CNC(=O)C(=NNc1cccc(Cl)c1Cl)C(C)=O`, 5.
With `O=C(O)c1ccc(/N=N/c2ccc(O)c(C(=O)O)c2)cc1` the figure was 5.
The figure for `CCC(C)O[Si](OC(C)CC)(OC(C)CC)OC(C)CC` (centres undefined) is 5.
In turn, `CC(SCC(=O)O)c1ccc2c(c1)Cc1ccccc1-2` (centres undefined) registered a GHS category of 4.
On to `Cc1ncc(CSSSCc2cnc(C)c(O)c2CO)c(CO)c1O`, for which the GHS category was determined as 5.
With `CO[C@H]1C=CO[C@@]2(C)Oc3c(C)c(O)c4c(O)c(c5c(nc6cc(C)ccn65)c4c3C2=O)NC(=O)C(C)=CC=C[C@H](C)[C@H](O)[C@@H](C)[C@@H](O)[C@@H](C)[C@H](OC(C)=O)[C@@H]1C` the figure was 5; with `C/C=C(\C)C(=O)O[C@H]1C[C@@H](OC(C)=O)[C@@]2(C(=O)OC)CO[C@H]3[C@@H](O)[C@@](C)([C@]45O[C@@]4(C)[C@H]4C[C@@H]5O[C@@H]5OC=C[C@@]54O)[C@H]4[C@]1(CO[C@]4(O)C(=O)OC)[C@@H]32`, 5.
The figure for `CCCN(CCC)c1c([N+](=O)[O-])cc(C(C)C)cc1[N+](=O)[O-]` is 5; for `CCN(CC)CCC1=NC(=C2C=CC=CC2=O)NO1` it is 5; for `OB(O)c1cc(F)c(F)c(F)c1` it is 4.
The figure for `CC(F)(Cl)Cl` is 5; for `CCOc1nc(F)cc2nc(S(=O)(=O)Nc3c(Cl)cccc3C(=O)OC)nn12` it is 5.
Turning to `O=C(Nc1ccc(Cl)cc1)Nc1ccc(Cl)c(Cl)c1`, the GHS category is listed as 5.
With `NCC1(CC(=O)O)CCCCC1` the figure was 5; with `CCC(C)c1cc(S(=O)(=O)O)cc(-n2nc3ccccc3n2)c1O` (centres undefined), 5; with `CC(C)COP(=O)(OCC(C)C)OCC(C)C`, 5.
